{"source": "patent US7459449B2", "about": "(priority 2004, dated 2008)", "key": {"[1]": {"assay": "Tendency to form solvates (acetone)", "format": "physicochemical", "conditions": "generally acetone as the solvent", "text": "Additionally the inventive salts are not prone to forming solvates. Solvates with organic solvents such as acetone, dichloromethane, dioxane, etc., are inconvenient in pharmaceutical applications because of the toxicity of the solvent. […] A typical example of such a solvate salt is the acetone solvate of olanzapine succinate. The solvent may nevertheless be present in the wet cake of the crude material after isolation in solid state, but a solvent-free product should be obtained by ordinary means of drying. A solvent-free salt (i.e. less than 0.5%, preferably less than 0.1%, of the solvent present) is particularly preferred as the absence of the solvent is advantageous for pharmaceutical applications."}, "[2]": {"assay": "Hygroscopicity", "format": "physicochemical"}, "[3]": {"assay": "Stability against light", "format": "physicochemical"}, "[4]": {"assay": "Water solubility test at 10 mg/ml", "conditions": "thermodynamic from solid"}, "[5]": {"conditions": "cited from earlier work"}, "[6]": {"assay": "Isolation of the olanzapine salt in solid form", "format": "physicochemical"}, "[7]": {"assay": "Stability of 1% aqueous solution against precipitation", "conditions": "for Is 1% solution stable from precipitation?: 1% aqueous solution, at least 12 to 24 hours (overnight)", "description": "(§1) A failure was considered to be 1% or more of impurities being formed; i.e. if 1% or more formed, then the salt is reported as “No,” not stable, for the corresponding test."}, "[8]": {"assay": "Solid state stability (impurity formation on storage)", "format": "physicochemical", "conditions": "short period of storage", "description": "as §1"}}, "note": "Structures can show the parent of a compound that is named as a salt. Where two headings read alike, the source gives them in different places."}
{"compound": "Cc1cc2c(s1)Nc1ccccc1N=C2N1CCN(C)CC1.O=C(O)C(O)C(O)C(=O)O.O=C(O)C(O)C(O)C(=O)O", "note": "[Di-L-tartrate, reference compound]", "values": [{"measurement": "Is there low tendency to form solvates?", "setting": "[1]", "result": "No"}]}
{"compound": "Cc1cc2c(s1)Nc1ccccc1N=C2N1CCN(C)CC1.O=C(O)C=CC(=O)O.O=C(O)C=CC(=O)O", "note": "[Dimaleate, reference compound]", "values": [{"measurement": "Is there low tendency to form solvates?", "setting": "[1]", "result": "No"}]}
{"compound": "Cc1cc2c(s1)Nc1ccccc1N=C2N1CCN(C)CC1.Cc1cc2c(s1)Nc1ccccc1N=C2N1CCN(C)CC1.O=C(O)CCCCC(=O)O", "note": "[Hemiadipate, Olanzapine Hemi-Adipate]", "values": [{"measurement": "Is there low tendency to form solvates?", "setting": "[1]", "result": "Yes"}]}
{"compound": "Cc1cc2c(s1)Nc1ccccc1N=C2N1CCN(C)CC1.Cc1cc2c(s1)Nc1ccccc1N=C2N1CCN(C)CC1.O=S(=O)(O)O", "note": "[Hemisulfate, reference compound]", "values": [{"measurement": "Is there low tendency to form solvates?", "setting": "[1]", "result": "No"}]}
{"compound": "Cc1cc2c(s1)Nc1ccccc1N=C2N1CCN(C)CC1.O=C(O)CC(=O)O", "note": "[Hydrogenmalonate, Olanzapine Hydrogenmalonate]", "values": [{"measurement": "hygroscopicity", "setting": "[2]", "result": "generally non-hygroscopic"}, {"measurement": "stability against the action of light", "setting": "[3]", "result": "sufficiently stable against the action of light"}, {"measurement": "Is there low tendency to form solvates?", "setting": "[1]", "result": "Yes"}]}
{"compound": "CC(O)C(=O)O.Cc1cc2c(s1)Nc1ccccc1N=C2N1CCN(C)CC1", "note": "[Mono-L-lactate, Olanzapine Lactate]", "values": [{"measurement": "Is there low tendency to form solvates?", "setting": "[1]", "result": "Yes"}]}
{"compound": "Cc1cc2c(s1)Nc1ccccc1N=C2N1CCN(C)CC1.O=C(O)c1ccccc1", "note": "[Monobenzoate, Olanzapine Benzoate]", "values": [{"measurement": "hygroscopicity", "setting": "[2]", "result": "generally non-hygroscopic"}, {"measurement": "stability against the action of light", "setting": "[3]", "result": "sufficiently stable against the action of light"}, {"measurement": "Is there low tendency to form solvates?", "setting": "[1]", "result": "Yes"}]}
{"compound": "CCS(=O)(=O)O.Cc1cc2c(s1)Nc1ccccc1N=C2N1CCN(C)CC1", "note": "[Monoesylate, Olanzapine Esylate]", "values": [{"measurement": "Is there low tendency to form solvates?", "setting": "[1]", "result": "Yes"}]}
{"compound": "Cc1cc2c(s1)Nc1ccccc1N=C2N1CCN(C)CC1", "note": "[Monohydrochloride, Olanzapine Monohydrochloride]", "values": [{"measurement": "solubility", "setting": "[4]", "result": "> 10000", "unit": "µg/mL"}]}
{"compound": "Cc1cc2c(s1)Nc1ccccc1N=C2N1CCN(C)CC1.O=S(=O)(O)O", "note": "[Monosulfate, Olanzapine Hydrogensulfate]", "values": [{"measurement": "Is there low tendency to form solvates?", "setting": "[1]", "result": "No"}]}
{"compound": "Cc1cc2c(s1)Nc1ccccc1N=C2N1CCN(C)CC1.O.O=C(O)c1cc2ccccc2c(Cc2c(O)c(C(=O)O)cc3ccccc23)c1O", "note": "[Pamoate, olanzapine pamoate, reference compound]", "values": [{"measurement": "water solubility (in words), background", "setting": "[5]", "result": "insoluble in water"}, {"measurement": "Is there low tendency to form solvates?", "setting": "[1]", "result": "No"}]}
{"compound": "Mandelate [reference compound]", "values": [{"measurement": "Readily isolatable in solid form?", "setting": "[6]", "result": "No"}]}
{"compound": "Olanzapine", "values": [{"measurement": "water solubility (in words), background", "setting": "[5]", "result": "insoluble in water"}, {"measurement": "solubility at pH 6.8", "setting": "[5]; pH 6.8, marketed free base", "result": 0.02, "unit": "mg/ml"}]}
{"compound": "Olanzapine Acetate [Monoacetate]", "values": [{"measurement": "Is 1% solution stable from precipitation?", "setting": "[7]", "result": "No"}, {"measurement": "Readily isolatable in solid form?", "setting": "[6]", "result": "Yes"}, {"measurement": "Is there low tendency to form solvates?", "setting": "[1]", "result": "Yes"}]}
{"compound": "Olanzapine Besylate [Monobesylate]", "values": [{"measurement": "Is 1% solution stable from precipitation?", "setting": "[7]", "result": "No"}, {"measurement": "Readily isolatable in solid form?", "setting": "[6]", "result": "Yes"}, {"measurement": "Is there low tendency to form solvates?", "setting": "[1]", "result": "Yes"}]}
{"compound": "Olanzapine Hemi-Succinate [Hemisuccinate]", "values": [{"measurement": "Is 1% solution stable from precipitation?", "setting": "[7]", "result": "No"}, {"measurement": "Readily isolatable in solid form?", "setting": "[6]", "result": "Yes"}, {"measurement": "Is there low tendency to form solvates?", "setting": "[1]", "result": "No"}]}
{"compound": "Olanzapine Hemifumarate", "values": [{"measurement": "Is 1% solution stable from precipitation?", "setting": "[7]", "result": "No"}, {"measurement": "Readily isolatable in solid form?", "setting": "[6]", "result": "Yes"}, {"measurement": "Is there low tendency to form solvates?", "setting": "[1]", "result": "No"}]}
{"compound": "Olanzapine Hydrogenmaleate", "values": [{"measurement": "Is 1% solution stable from precipitation?", "setting": "[7]", "result": "No"}, {"measurement": "hydrolysis by water (liberation of olanzapine base in aqueous solution)", "setting": "[7]; aqueous solution", "result": "hydrolysable by water"}, {"measurement": "hygroscopicity", "setting": "[2]", "result": "generally non-hygroscopic"}, {"measurement": "stability against the action of light", "setting": "[3]", "result": "sufficiently stable against the action of light"}, {"measurement": "Readily isolatable in solid form?", "setting": "[6]", "result": "Yes"}, {"measurement": "Is there low tendency to form solvates?", "setting": "[1]", "result": "Yes"}, {"measurement": "water solubility (in words)", "setting": "listed as maleate", "result": "good water solubility"}, {"measurement": "water solubility (in words)", "setting": "listed as olanzapine hydrogenmaleate", "result": "soluble in water"}]}
{"compound": "Olanzapine Mesylate [Monomesylate]", "values": [{"measurement": "Is 1% solution stable from precipitation?", "setting": "[7]", "result": "No"}, {"measurement": "Readily isolatable in solid form?", "setting": "[6]", "result": "Yes"}, {"measurement": "Is there low tendency to form solvates?", "setting": "[1]", "result": "No"}]}
{"compound": "Olanzapine Mono-Tartrate [Mono-L-tartrate]", "values": [{"measurement": "Is 1% solution stable from precipitation?", "setting": "[7]", "result": "Yes"}, {"measurement": "Readily isolatable in solid form?", "setting": "[6]", "result": "Yes"}, {"measurement": "Is there low tendency to form solvates?", "setting": "[1]", "result": "No"}]}
{"compound": "Tosylate [reference compound]", "values": [{"measurement": "Readily isolatable in solid form?", "setting": "[6]", "result": "No"}]}
{"compound": "olanzapine dibesylate [reference compound]", "values": [{"measurement": "Readily isolatable in solid form?", "setting": "[6]", "result": "Yes**"}, {"measurement": "solid state behaviour on storage", "setting": "[8]", "result": "become oily after a short period of storage"}]}
{"compound": "olanzapine dimesylate [reference compound]", "values": [{"measurement": "Readily isolatable in solid form?", "setting": "[6]", "result": "Yes**"}, {"measurement": "solid state behaviour on storage", "setting": "[8]", "result": "become oily after a short period of storage"}]}
